This assay deals with diabetic SHRs. The experiment in a line: Survival of streptozotocin-diabetic SHRs under drug treatment. It is filed as in vivo, spontaneously hypertensive rats (SHR). Particulars: twice daily gavage. An excerpt:
In diabetic SHRs the presence of hypertension is an important determinant of renal injury, manifesting in functional changes such as albuminuria and in ultrastructural injury. For example, diabetic SHRs show ventricular hypertrophy and develop nephropathy resulting in sudden death events. Accordingly, the use of this animal model is well-applied in the art and suitable for evaluating effects of drugs on the development of diabetic renal diseases. There is a strong need to achieve a significant increase of the survival rate by treatment of hypertension in diabetes especially in NIDDM. It is known that CCBs are not considered as first line antihypertensives e.g. in NIDDM treatment. Though some kind of reduction of blood pressure may be achieved with CCBs, they may not be indicated for the treatment of renal disorders associated with diabetes.
Diabetes is induced in SHRs aged about 6 to 8 weeks weighing about 250 to 300 g by treatment e.g. with streptozotocin. The drugs are administered by twice daily gavage. Untreated diabetic SHRs are used as control group (group 1). […] On a regular basis, besides other parameters the survival rate after 21 weeks of treatment is being monitored. In week 21 of the study, following survival rates have been determined: […]

Molecules are shown by their SMILES.

`COc1ccc(CCN(C)CCCC(C#N)(c2ccc(OC)c(OC)c2)C(C)C)cc1OC` (centres unmarked) [verapamil]: the “Survival Rate” value (20 mg/kg of verapamil, week 21 (group 3)) was 42.9%.

Take `CCCCC(=O)N(Cc1ccc(-c2ccccc2-c2nnn[nH]2)cc1)[C@H](C(=O)O)C(C)C` [valsartan, (S)-N-(1-carboxy-2-methyl-prop-1-yl)-N-pentanoyl-N-[2'(1H-tetrazol-5-yl)biphenyl-4-yl-methyl]amine]: where the note is “30 mg/kg of valsartan, week 21 (group 2)”, the “Survival Rate” value was determined as 45.9%.

The values are drawn from patent EP1096932B1, “ANTIHYPERTENSIVE COMBINATION OF VALSARTAN AND CALCIUM CHANNEL BLOCKER” (Novartis Pharma AG, priority 1998, dated 2000).
